In patent US7951403B2, “Method of making pharmaceutical multiparticulates” (Pfizer Inc., priority 2003, dated 2011):

Experiment: Azithromycin dihydrate crystallinity in molten carrier mixtures with varying water, by PXRD
Assay type: physicochemical
Experimental: Another way to determine the activity of volatile species in crystalline drug at the processing conditions is by measuring the change in the crystalline state of the drug as a function of the amount of volatile species present in the molten mixture. A series of blends of the crystalline drug, the carrier, and varying amounts of volatile species are prepared and placed into sealed containers. The containers are then heated to the processing temperature used to form the multiparticulates and held at this temperature for a period of time, such as 90 minutes. During this time, a sample of the container's atmosphere, i.e., the container's “headspace,” can be taken and the partial pressure of volatile species in the headspace can be measured using standard techniques, such as by gas chromatography. The containers are then cooled and the concentration of the desired crystalline form of the drug in each sample can be determined using standard techniques, as described below. The concentration of the desired crystalline form of the drug in the sample is then plotted versus the amount of volatile species included in the blend or the concentration of volatile species present in the headspace. […] The amount of the desired crystalline form of the drug in the samples and in multiparticulates can be determined using Powder X-Ray Diffraction (PXRD) analysis. In an exemplary procedure, PXRD analysis may be performed on a Bruker AXS D8 Advance diffractometer. In this analysis, samples of about 500 mg are packed in Lucite sample cups and the sample surface smoothed using a glass microscope slide to provide a consistently smooth sample surface that is level with the top of the sample cup. Samples are spun in the φ plane at a rate of 30 rpm to minimize crystal orientation effects. The X-ray source (S/B KCuα, λ=1.54 Å) is operated at a voltage of 45 kV and a current of 40 mA. Data for each sample are collected over a period of about 20 to 60 minutes in continuous detector scan mode at a scan speed of about 1 to 15 seconds/step and a step size of 0.02°/step. Diffractograms are collected over the 2θ range of 4° to 30°. The crystallinity of the test sample is determined by comparison with two or more calibration standards consisting of physical mixtures of crystalline drug and carrier. Each physical mixture is blended together 15 minutes on a Turbula mixer. Using the instrument software, the area under the diffractogram curve is integrated over the 2θ range using a linear baseline. This integration range includes as many drug-specific peaks as possible while excluding carrier-related peaks. A linear calibration curve of percent crystalline drug versus the area under the diffractogram curve is generated from the calibration standards. The crystallinity of the test sample is then determined using these calibration results and the area under the curve for the test sample. Results are reported as a mean percent drug crystallinity by crystal mass. The amount of water required to maintain the dihydrate form of azithromycin while forming multiparticulates by a melt-congeal process was determined as follows. The composition of the multiparticulates was 50 wt % azithromycin dihydrate, 46 wt % of the matrix excipient COMPRITOL 888 ATO (a mixture of 13 to 21 wt % glyceryl mono-behenate, 40 to 60 wt % glyceryl di-behenate, and about 35 wt % glyceryl tri-behenate from Gattefossé Corporation of Paramus, N.J.), and 4 wt % of the poloxamer dissolution enhancer PLURONIC F127 (polyoxyethylene-polyoxypropylene block copolymer, from BASF Corporation of Mt. Olive, N.J.). Mixtures of these materials containing varying amounts of water were prepared and analyzed by PXRD. To form each mixture, 100 g azithromycin dihydrate, 92 g of the COMPRITOL 888 ATO, and 8 g of the PLURONIC F127 were added to a water-jacketed stainless steel sealed vessel. Various amounts of water were added to each mixture to obtain varying water concentrations. […]

Azithromycin Dihydrate Crystallinity (Water in melt sample 0.35 wt %, same mixture, 90 min at 90° C.): 57 wt %
Azithromycin Dihydrate Crystallinity (Water in melt sample 0.45 wt %, same mixture, 90 min at 90° C.): 68 wt %
Azithromycin Dihydrate Crystallinity (Water in melt sample 1.88 wt %, same mixture, 90 min at 90° C.): 91 wt %
Azithromycin Dihydrate Crystallinity (Water in melt sample 2.22 wt %, same mixture, 90 min at 90° C.): 93 wt %
Azithromycin Dihydrate Crystallinity (Water in melt sample 3.08 wt %, 50/46/4 azithromycin dihydrate/COMPRITOL 888 ATO/PLURONIC F127, stirred 90 min at 90° C., sealed vessel): 95 wt %
water needed in the mixtures to maintain high levels of azithromycin dihydrate crystallinity in the melt (melt at 90° C., COMPRITOL 888 ATO/PLURONIC F127 carrier): at least 2.2 wt %
SMILES: CC[C@H]1OC(=O)[C@H](C)[C@@H](O[C@H]2C[C@@](C)(OC)[C@@H](O)[C@H](C)O2)[C@H](C)[C@@H](O[C@@H]2O[C@H](C)C[C@H](N(C)C)[C@H]2O)[C@](C)(O)C[C@@H](C)CN(C)[C@H](C)[C@@H](O)[C@]1(C)O [Azithromycin Dihydrate, 9a-aza-9a-methyl-9-deoxo-9a-homoerythromycin A]
